{"source": "patent US11958843B1", "about": "“2-(benzo[d]oxazol-2-yl)-n′-(2-(5-phenyl-1,3,4-oxadiazol-2-ylthio)acetoxy)acetimidamide as an antimicrobial compound” (priority 2023, dated 2024)", "system": "Bacillus cereus, Staphylococcus aureus, Pseudomonas aeruginosa, Escherichia coli, Aspergillus flavus, Chrysosporium keratinophilum", "experiment": "Agar plate disc-diffusion antimicrobial activity", "assay_type": "cell-based", "settings": "disc wetted with 10 μL of 10 mg/mL in DMSO; 37° C., 48 h (72 h for fungi); gram positive and gram-negative bacteria and fungi; result in words only", "experimental": "The agar plate disc-diffusion method was applied. Sterilized filter papers (6 mm in diameter) were wetted with 10 μL of a solution of 2-(benzo[d]oxazol-2-yl)-N′-(2-(5-phenyl-1,3,4-oxadiazol-2-ylthio)acetoxy)acetimidamide (3) to be tested, containing 10 mg/mL in DMSO, and the discs were allowed to air dry. The discs were then placed onto the surface of agar plates (nutrient agar for bacteria and Sabouraud's dextrose agar for fungi) seeded with the test organism. Each plate contained 15 mL of the agar medium, previously seeded with 0.2 mL of the broth culture of each organism pregrown for 18 hours. The plates were incubated at 37° C. for 48 h, and 72 h for fungi. The inhibition zones were measured in mm. Discs impregnated with DMSO were used as a control, and its inhibition zone was subtracted from the tested compound actual inhibition zone. […] The antibacterial activity was screened against gram positive bacteria namely Bacillus cereus and Staphylococcus aureus and gram-negative bacterial strains namely Pseudomonas aeruginosa and Escherichia coli, while the antifungal activity was screened against Aspergillus flavus and Chrysosporium keratinophilum."}
{"smiles": "N/C(Cc1nc2ccccc2o1)=N\\OC(=O)CSc1nnc(-c2ccccc2)o1", "note": "[compound 3, 2-(benzo[d]oxazol-2-yl)-N′-(2-(5-phenyl-1,3,4-oxadiazol-2-ylthio)acetoxy)acetimidamide]", "values": [{"measurement": "antimicrobial activities (inhibition zones)", "value": "high antimicrobial activities"}]}
